# Measurements: patent publication US12031989B2, “Preparing live microbial samples and microorganisms for subsequent mass spectrometric measurement and evaluation” (Bruker Daltonics GmbH & Co. KG, priority 2016, dated 2024)
# Legend:
# [1] = test system: Klebsiella pneumoniae meropenem-sensitive strain; assay: resistance/sensitivity test directly on MALDI-TOF MS sample support, meropenem-sensitive strain; assay type: cell-based
# Text: The antibiotic (for example an antibiotic solution in a liquid nutrient medium) can be mixed with a microorganism suspension either in a cultivation vessel or directly on a spot of a MALDI-TOF MS support 12 (hatched droplet 14*). In addition, this is generally accompanied by a growth control on a different section of the MALDI-TOF MS support, i.e. a cultivation of the microorganism suspension in a nutrient medium without the addition of an antibiotic (unhatched droplet 14). It is preferable for a very small quantity of the suspension to be applied to the spots; for example 1-10 microliters. The sensitivity test thus takes place in microdroplets 14, 14*, preferably with a volume of around 4-8 microliters. The use of even smaller volumes is also possible in principle, for example in the form of nanodroplets. […]
# In the example shown, the MALDI-TOF MS support 12 with the test solution is subsequently cultured in a so-called “humidity chamber” 16 in an incubator at high humidity. […] A small quantity of liquid can be put in the humidity chamber 16, for example 0.1 to 5 milliliters of water or NaCl solution to humidify the atmosphere in the chamber 16 and thus set a high ambient humidity (nearly 100%) so that the evaporation of the droplets of nutrient medium 14, 14* themselves is prevented. […]
# [2] = test system: Klebsiella pneumoniae meropenem-resistant strain; assay: resistance/sensitivity test directly on MALDI-TOF MS sample support, meropenem-resistant strain; assay type: cell-based
# Text: The antibiotic (for example an antibiotic solution in a liquid nutrient medium) can be mixed with a microorganism suspension either in a cultivation vessel or directly on a spot of a MALDI-TOF MS support 12 (hatched droplet 14*). In addition, this is generally accompanied by a growth control on a different section of the MALDI-TOF MS support, i.e. a cultivation of the microorganism suspension in a nutrient medium without the addition of an antibiotic (unhatched droplet 14). It is preferable for a very small quantity of the suspension to be applied to the spots; for example 1-10 microliters. The sensitivity test thus takes place in microdroplets 14, 14*, preferably with a volume of around 4-8 microliters. The use of even smaller volumes is also possible in principle, for example in the form of nanodroplets. The initial microorganism concentration in the droplets 14, 14* can be slightly below the detection limit of a conventional MALDI time-of-flight mass spectrometer with linear flight path, and thus amount to around 5×10^5 cfu per milliliter, for example (cfu—colony forming unit). FIG. 3A.
# In the example shown, the MALDI-TOF MS support 12 with the test solution is subsequently cultured in a so-called “humidity chamber” 16 in an incubator at high humidity. The purpose of the humidity chamber 16 is to prevent the droplets 14, 14* from evaporating prematurely during the incubation, and it can take the form of a box with a lid, made of plastic, for example, into which the MALDI-TOF MS support can easily be placed. […] A small quantity of liquid can be put in the humidity chamber 16, for example 0.1 to 5 milliliters of water or NaCl solution to humidify the atmosphere in the chamber 16 and thus set a high ambient humidity (nearly 100%) so that the evaporation of the droplets of nutrient medium 14, 14* themselves is prevented. FIG. 3B.
# In the droplets 14, 14*, a high concentration of the microorganisms in a small volume of liquid is rapidly achieved during incubation (as long as the growth is not inhibited by antimicrobial substances). […]
# [3] = 2 micrograms per milliliter, 6 microliter droplet, four hours incubation, MALDI Biotyper evaluation
structure (smiles),measurement,setting,value
C[C@@H](O)[C@H]1C(=O)N2C(C(=O)O)=C(S[C@@H]3CN[C@H](C(=O)N(C)C)C3)[C@H](C)[C@H]12 [meropenem],bacterial growth in the presence of meropenem (specific mass signal signatures vs growth control),[1]; [3],cannot multiply (or scarcely)
same,relative growth,"[1]; droplet sizes 2, 4, 6, 8 and 10 microliters, significant growth threshold 0.4, FIG. 4B",< 0.4
same,bacterial growth in the presence of meropenem (specific mass signal signatures vs growth control),[2]; [3],not inhibited
same,"relative growth, median","[2]; 4 microliter droplet, measurements occasionally below threshold, FIG. 4B",greater than 0.4
same,relative growth,"[2]; droplet sizes 2, 6, 8 and 10 microliters, significant growth threshold 0.4, FIG. 4B",greater than 0.4
